Test results taken from PMC10385664, “Projection of Target Drug Particle Size in Oral Formulations Using the Refined Developability Classification System (rDCS)” (Pharmaceutics, 2023).

Experiments:
[1] = rDCS dissolution rate analysis (kdiss vs kperm) by Rosenberger et al.; conditions: for kdiss: based on IDR, standard particle size 100 µm
Description: Rosenberger et al. published an equation for kdiss based on the intrinsic dissolution rate (IDR) rather than CS (Equation (9)). Applying the hparticle assumption for larger particles with r0 ≥ 30 µm (hparticle = 30 µm) results in Equation (10). (9) kdiss=kIDR·IDR=3·hdisk/r0^2·ρ·IDR(r0<30 µm, hparticle=r0) (10) kdiss=kIDR·IDR=3·hdisk/r0·hparticle·ρ·IDR(r0≥30 µm, hparticle=30 µm)
In these equations kIDR is the IDR rate constant, which accounts for the solvent kinematic viscosity, rotational speed of the compressed disk, diffusion coefficient, particle size and API density. Therefore, kIDR corrects for differences in experimental conditions that influence the measured IDR value. The ABL thickness of the rotating disk (hdisk) can be estimated according to Equation (11):(11) hdisk=4.98·ν^1/6·D^1/3·RPM^−1/2 where ν is the solvent kinematic viscosity and the stirring rate is expressed as revolutions per minute (RPM). When kdiss is based on the IDR, two modified Dn equations result (Equations (12) and (13)):(12) Dn=3·hdisk/r0^2·ρ·IDR·Tsi(r0<30 µm, hparticle=r0) (13) Dn=3·hdisk/r0·hparticle·ρ·IDR·Tsi(r0≥30 µm, hparticle=30 µm)
The rDCS dissolution rate analysis was conducted according to Rosenberger et al.. For this, kdiss based on the IDR for a standard particle size of 100 µm was calculated (Equation (15)) and compared to kperm (Equation (10)). The kinematic viscosity of the medium (0.00696 cm^2/s), aqueous diffusion coefficient (predicted with ADMET Predictor version 9), stirring rate (100 rpm), initial particle size (100 µm), API density (predicted with ACD/Labs Release 2021.1.2), and measured IDR were used to calculate kdiss. Predicted diffusion coefficients and API densities can be found in Supplementary Materials. The estimated Peff, degree of flatness (1.7) and small intestinal radius (2 cm) were used for the calculation of kperm.

[2] = Shake-flask n-octanol/water logDpH7.4 with HPLC-UV; type: physicochemical; conditions: octanol / 0.01 M phosphate buffer pH 7.4, 25 °C
Method: LogDpH7.4 values of the three APIs were determined at Pion Inc (UK) Ltd. (Forest Row, UK) using a shake-flask screening method and high performance liquid chromatography with UV detection (HPLC-UV). Samples containing the API were equilibrated between octanol-saturated 0.01 M phosphate buffer at pH 7.4 and buffer-saturated octanol and analyzed by HPLC-UV. The experimental details are provided in Supplementary Materials. Measured logDpH7.4 values are presented as means (±SD) and were compared to literature values as well as in silico predictions using the software ADMET Predictor version 9 and ACD/Labs Release 2021.1.2. […]
version 9 (Simulations Plus Inc., Lancaster, CA, USA) and ACD/ Labs Release 2021.1.2 (Advanced Chemistry Devel opment Inc., Toronto, Canada) with the molecular structure as input.
S.2.3. n‐Octanol/Water Distribution Coefficient (logDpH7.4) […]
screening method and HPLC analysis. Samples (n = 3) were prepared by addition of a 10 mM API stock solution in DMSO to an oct anol saturated 0.01 M phosphate buffer at pH 7.4 to prepare a 1:10 dilution (ionic strength adjusted with 0.15 M NaCl). Buffer saturated octanol was added (1:1) to prepare pa rtiti on systems, which were agitated on an electronic shake pla te for 4 h at 25 ± 2°C. All samples were centrifuged, and aqueous and octanol layers were separately transferred to 96 well plat es. Both layers of each replicate were analyzed with a standard HPLC gradient method (Table S3). A Waters Acquity H‐Class Plus System consisting of a sample manager, a quaternary solvent manager and a photodiode array (PDA) detector was used. All HPLC data was collected and processed using the software Empower® version 3.0. Measured logDpH7.4 values are presented as means with standard deviation and were compared to literature va lu es and predictions using the software ADMET Predictor version 9 and ACD/Labs Release 2021.1.2 wit h the molecular structure as input.
Table S3. Standard HP LC method for the determination of logDpH7.4 values.
System Waters Acquity H‐Class Plus System […]

[3] = rDCS standard investigations: D/S ratio, SLAD and rDCS classification
Method: rDCS analysis was performed as described by Rosenberger et al.. […] The An can be calculated according to Equation (30):(30) An=DF·Peff/Rsi·Tsi
The rDCS classification according to the standard investigations was based on the D/S ratios, Peff and SLAD.

[4] = from estimated Peff, DF 1.7, Rsi 2 cm

| SMILES | kdiss [1] | kperm [1, 4] | logD at 4 h [2] | SLAD (solubility-limited absorbable dose) [3] | kdiss for r = 100 µm ([1]; Excel template) | kperm ([1]; Excel template) |
| --- | --- | --- | --- | --- | --- | --- |
| Cc1ncc(OC[C@@]2(c3cccc(F)c3)C[C@H]2C(=O)Nc2ccc(F)cn2)c(C)n1 [Lemborexant, lemborexant] | 3e-06 s⁻¹ | 0.0214 min⁻¹ | 3.04 ± 0.05 | 49.6 mg |  |  |
| CCn1c(=O)c2c(nc(/C=C/c3ccc(OC)c(OC)c3)n2C)n(CC)c1=O [Istradefylline, istradefylline] | 4.55e-07 s⁻¹ | 0.0238 min⁻¹ | 2.96 ± 0.03 | 8.50 mg |  |  |
| C[C@@H](c1ncncc1F)[C@](O)(Cn1cncn1)c1ccc(F)cc1F [Voriconazole, voriconazole] | 0.000126 s⁻¹ | 0.0219 min⁻¹ | 1.66 ± 0.03 | 1810 mg | 0.000126 s⁻¹ | 0.02193 min⁻¹ |
